In series [1] the test system is RSV A2. Kind of series: CPE assay, RSV A2 in HEp-2 cells (resazurin). The format is cell-based, respiratory syncytial virus. To be noted: for IC50: read-out: RSV A2 IC50; for IC90: read-out: RSV A2 IC90. A general note: Alamar Blue is a resazurin reagent that responds to reducing activity.
For the next series, the system named is RSV A USU\v1225. The series can be described thus: CPE 2, neutral red 96-well CPE assay in HEp-2. The format is cell-based. As to conditions: human respiratory syncytial virus. On the procedure: (§1) For RSV A 2001/3-12, 1998/3-2, and USU⃥v1225, CPE was induced in HEp-2 cells for 7 days and the plates were then stained with neutral red dye for approximately 2 h. The intracellular incorporated dye was extracted in 50:50 Sorensen citrate buffer-ethanol and the absorbance read on a spectrophotometer. The optical density (OD) of test wells was converted to percentage of cell and virus controls. […] The virus inocula were ∼63 50% cell culture infectious doses (CCID50) per well for 2001/3-12, ∼40 CCID50/well for 1998/3-2, and ∼32 CCID50/well for USU\v1225. This assay was conducted in Utah State University (Logan, UT).

In another series the test system is RSV A 2001/3-12. Kind of series: CPE 2, neutral red 96-well CPE assay in HEp-2. The class given is cell-based. To be noted: human respiratory syncytial virus. On the procedure: as §1
In another series the test system is RSV A 1998/3-2. The series can be described thus: CPE 2, neutral red 96-well CPE assay in HEp-2. The class given is cell-based. As to conditions: human respiratory syncytial virus. On the procedure: as §1
For the next series, the system named is RSV B WST. The series can be described thus: CPE assay, RSV B Washington in HEp-2 cells (resazurin). The class given is cell-based, respiratory syncytial virus.
Another series deals with RSV A 1997/12-35. The series can be described thus: CPE 1, resazurin 384-well CPE assay in HEp-2. The class given is cell-based. To be noted: human respiratory syncytial virus. On the procedure: (§2) For known clinical strains (RSV A 1997/12-35, 2001/2-20, 200/3-4, and Memphis 37), a 384-well-format resazurin-based CPE assay was conducted.
For a further series, the system named is RSV A Memphis 37c. The series can be described thus: CPE 1, resazurin 384-well CPE assay in HEp-2. The format is cell-based. As to conditions: human respiratory syncytial virus. On the procedure: as §2
In a further series the test system is RSV A 2000/3-4. Kind of series: CPE 1, resazurin 384-well CPE assay in HEp-2. To be noted: human respiratory syncytial virus. The format is cell-based. On the procedure: as §2
A further series deals with RSV A 2001/2-20. The series can be described thus: CPE 1, resazurin 384-well CPE assay in HEp-2. The format is cell-based. As to conditions: human respiratory syncytial virus. The protocol: as §2
The target of series [2] is minigenome construct comprising the L protein, M2-1, N, and P of RSV A2 (Human respiratory syncytial virus A, UniProt P28887). The series can be described thus: cell-based.
Sequence of minigenome construct comprising the L protein, M2-1, N, and P of RSV A2 (P28887 whole entry): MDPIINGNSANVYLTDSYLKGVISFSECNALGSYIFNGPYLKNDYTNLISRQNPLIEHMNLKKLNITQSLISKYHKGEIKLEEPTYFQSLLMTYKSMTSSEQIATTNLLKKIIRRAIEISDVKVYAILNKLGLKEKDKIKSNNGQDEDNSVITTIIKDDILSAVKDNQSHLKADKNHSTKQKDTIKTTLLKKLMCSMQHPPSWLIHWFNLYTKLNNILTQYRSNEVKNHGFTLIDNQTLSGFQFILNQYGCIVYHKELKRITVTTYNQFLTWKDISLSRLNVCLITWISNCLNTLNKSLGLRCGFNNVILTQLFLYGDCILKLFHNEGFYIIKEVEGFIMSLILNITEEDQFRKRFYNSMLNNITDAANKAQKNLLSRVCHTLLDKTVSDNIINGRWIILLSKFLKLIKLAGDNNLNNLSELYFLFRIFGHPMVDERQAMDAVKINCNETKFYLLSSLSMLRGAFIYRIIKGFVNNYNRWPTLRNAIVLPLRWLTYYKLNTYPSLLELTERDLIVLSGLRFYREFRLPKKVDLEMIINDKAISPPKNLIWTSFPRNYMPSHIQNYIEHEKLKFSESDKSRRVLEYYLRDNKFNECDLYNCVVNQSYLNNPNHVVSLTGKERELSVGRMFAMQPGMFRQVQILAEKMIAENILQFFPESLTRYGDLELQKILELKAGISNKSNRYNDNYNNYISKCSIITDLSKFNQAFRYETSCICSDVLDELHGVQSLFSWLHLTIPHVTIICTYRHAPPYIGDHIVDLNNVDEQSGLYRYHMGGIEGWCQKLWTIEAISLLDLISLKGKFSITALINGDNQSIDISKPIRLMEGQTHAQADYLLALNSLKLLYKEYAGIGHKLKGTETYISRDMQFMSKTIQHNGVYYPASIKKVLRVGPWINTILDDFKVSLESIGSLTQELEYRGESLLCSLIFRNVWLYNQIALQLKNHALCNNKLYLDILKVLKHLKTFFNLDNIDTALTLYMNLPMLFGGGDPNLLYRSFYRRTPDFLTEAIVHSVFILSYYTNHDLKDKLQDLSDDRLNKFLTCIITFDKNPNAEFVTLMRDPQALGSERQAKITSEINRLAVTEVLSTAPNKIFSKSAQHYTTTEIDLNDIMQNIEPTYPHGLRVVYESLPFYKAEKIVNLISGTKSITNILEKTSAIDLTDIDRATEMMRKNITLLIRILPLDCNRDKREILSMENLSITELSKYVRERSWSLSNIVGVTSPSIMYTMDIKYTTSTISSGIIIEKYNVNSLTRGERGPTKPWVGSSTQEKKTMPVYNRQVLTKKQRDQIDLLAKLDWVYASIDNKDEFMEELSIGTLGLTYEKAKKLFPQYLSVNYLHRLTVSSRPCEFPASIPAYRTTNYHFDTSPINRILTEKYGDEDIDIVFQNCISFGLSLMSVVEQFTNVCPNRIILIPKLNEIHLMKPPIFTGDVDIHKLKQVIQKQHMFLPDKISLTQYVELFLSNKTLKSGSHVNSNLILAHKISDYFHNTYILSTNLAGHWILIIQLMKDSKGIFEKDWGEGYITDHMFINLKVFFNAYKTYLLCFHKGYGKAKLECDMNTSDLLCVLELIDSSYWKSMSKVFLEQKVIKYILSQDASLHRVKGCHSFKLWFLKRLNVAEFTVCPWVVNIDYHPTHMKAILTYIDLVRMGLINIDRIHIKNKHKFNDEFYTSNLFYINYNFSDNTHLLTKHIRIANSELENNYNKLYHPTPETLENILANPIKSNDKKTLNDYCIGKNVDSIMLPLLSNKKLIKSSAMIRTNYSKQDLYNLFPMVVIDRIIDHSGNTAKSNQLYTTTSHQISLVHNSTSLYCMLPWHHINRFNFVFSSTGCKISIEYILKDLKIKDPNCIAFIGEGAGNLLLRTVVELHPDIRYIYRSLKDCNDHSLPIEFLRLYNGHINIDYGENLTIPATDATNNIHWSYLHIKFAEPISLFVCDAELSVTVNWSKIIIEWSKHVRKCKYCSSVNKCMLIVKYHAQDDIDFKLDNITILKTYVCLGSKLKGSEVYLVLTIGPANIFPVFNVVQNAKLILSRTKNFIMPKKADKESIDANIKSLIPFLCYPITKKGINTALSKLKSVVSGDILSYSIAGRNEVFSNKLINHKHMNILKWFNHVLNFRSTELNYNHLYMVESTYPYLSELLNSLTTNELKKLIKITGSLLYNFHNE
Sequence of minigenome construct comprising the L protein, M2-1, N, and P of RSV A2 (P03421 whole entry, further chain): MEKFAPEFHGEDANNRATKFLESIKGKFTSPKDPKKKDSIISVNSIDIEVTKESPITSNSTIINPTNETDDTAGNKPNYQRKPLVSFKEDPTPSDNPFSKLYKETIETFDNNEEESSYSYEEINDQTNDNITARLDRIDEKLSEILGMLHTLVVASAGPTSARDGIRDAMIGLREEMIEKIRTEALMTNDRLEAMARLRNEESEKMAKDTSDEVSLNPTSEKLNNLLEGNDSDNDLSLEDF
Series [3] is described as follows: Cell viability in HEp-2 cells (resazurin). As to conditions: human, HEp-2 cells.
In series [4] the test system is RSV A2. The series can be described thus: Time-of-addition assay and MOI dependency, CPE (methylene blue) in HEp-2. The class given is cell-based. As to conditions: human respiratory syncytial virus.
Series [5] relates to Wild type RSVA2 (vehicle control virus). Kind of series: CPE assay, vehicle control (wild type) RSV A2 virus. To be noted: for IC50: read-out: Wild type RSVA2 IC50; for IC90: read-out: Wild type RSVA2 IC90.
Series [6] relates to PC786 escape mutant (Y1631H) of RSV A2. The format is cell-based, respiratory syncytial virus. To be noted: for IC50: read-out: PC786 escape mutant IC50, N=3, after 6th passage; for IC50 / IC90: CPE; for IC90: read-out: PC786 escape mutant IC90, N=3; for activity on CPE of the PC786 escape mutant, in words: vs wild type.
A further series can be described thus: in vitro. As to conditions: human.
Series [7] relates to RSV A2. The series can be described thus: RSV F protein cell-based ELISA in BEAS-2B cells, washout / nonwashout. As to conditions: human respiratory syncytial virus, read-out: IC50, F protein expressed on cell surfaces. The protocol:
Approximately 72 h after BEAS-2B cells were seeded in 96-well plates (at 4 × 10^4/ml; 100 μl/well), the medium in the plates was removed and replaced with 200 μl of fresh LHC-8 medium. […] For nonwashout plates, the compounds and DMSO (1 μl/well) were applied immediately after infection. On day 3 postinfection, supernatant was aspirated and the cells were fixed with 4% formaldehyde (100 μl in PBS solution) for 20 min at room temperature (RT), washed three times with wash buffer (WB) (200 μl; PBS containing 0.05% Tween 20), and incubated with blocking buffer (100 μl; 5% bovine serum albumin [BSA] in wash buffer) for 1 h. […] Abcam plc, Cambridge, UK). After a washing, cells were incubated with a horseradish peroxidase (HRP)-conjugated anti-mouse IgG antibody (50 μl/well; 1:2,000, Abcam) for 1 h. Tetramethylbenzidine (TMB) substrate (50 μl) was then added after two washings with WB and one with PBS, and the reaction was stopped by the addition of aqueous sulfuric acid (2 N; 50 μl/well). The resultant signal was determined colorimetrically (OD at 450 nm [OD450] with a reference wavelength of 655 nm) in a microplate reader (Multiskan FC; Thermo Fisher Scientific). Cells were then washed, and 0.5% crystal violet solution ([…]) was applied for 30 min. […] The measured F protein signals (OD450 − OD655 readings) were corrected for cell number (OD595 readings) by dividing the OD450–655 by the OD595 readings.
Background: In an ELISA, binding on a coated surface is turned into a signal by an enzyme label.

[8] abbreviates: human respiratory syncytial virus, HEp-2.
[9] abbreviates: human respiratory syncytial virus.
The mark [10] stands for this setting: CPE, HEp-2, n = 3, added with virus infection, ALS-8112 24 h prior.

Like-named read-outs stand apart in the source and are kept apart here.

Usually IC50 stands for the concentration that inhibits the measured activity by half. Broadly, the IC90 is the point of the concentration-response curve where the effect stands at 90%. With `Nc1ccn([C@@H]2O[C@@](CO)(CCl)[C@@H](O)[C@H]2F)c(=O)n1` [ALS-8112, reference compound], the IC50 in the series with RSV A2 [1] (setting [8]) was 455 ± 16 nM; in the series with RSV A USU\v1225, 880 nM; with RSV A 2001/3-12, 3200 nM; in the series with RSV A 1998/3-2, 1500 nM; with RSV B WST (setting [8]), 647 ± 44.2 nM; in the series on RSV A 1997/12-35, 693 nM. For the same compound, the IC50 in the series on RSV A Memphis 37c was 398 nM; in the series on RSV A 2000/3-4, 515 nM; in the series on RSV A 2001/2-20 it was 768 nM. The IC90 with RSV A2 [1] (setting [8]) turned out to be 1130 nM; with RSV B WST (setting [8]), 2130 nM; in [2] (luciferase, HEp-2, wild-type L protein), 831 nM. The same compound had a CC50 in series [3] above 341000 nM.

On to `Cc1cn2nc([C@@H]3CCCCN3C(=O)c3cc(Cl)ccc3NS(C)(=O)=O)cc2nc1N1CC[C@H](N)C1` [GS-5806, reference compound], for which the IC50 with RSV A2 [1] (setting [8]) is 0.45 ± 0.018 nM; with RSV A2 [4] (HEp-2, 24 h, MOI 0.02, n = 3, read-out: IC50 at treatment time 24 h postinoculation), 1.62 nM; in the series with RSV A2 [4] (HEp-2, 24 h, MOI 0.1, n = 3, read-out: IC50 at treatment time 24 h postinoculation), 2.05 nM; with RSV A2 [4] (HEp-2, 24 h, MOI 1.0, n = 3, read-out: IC50 at treatment time 24 h postinoculation), 11.7 nM; in the series on RSV A2 [4] (HEp-2, 48 h, read-out: IC50 at treatment time 48 h postinoculation, MOI 0.02, n = 3), 6.46 nM; in the series with RSV A2 [4] (HEp-2, 48 h, read-out: IC50 at treatment time 48 h postinoculation, MOI 0.1, n = 3), above 188 nM. The IC50 with RSV A2 [4] (HEp-2, 48 h, read-out: IC50 at treatment time 48 h postinoculation, MOI 1.0, n = 3) was above 188 nM; in the series with RSV A2 [4] (HEp-2, 72 h, MOI 0.02, n = 3, read-out: IC50 at treatment time 72 h postinoculation), above 188 nM; in the series on RSV A2 [4] (HEp-2, 72 h, MOI 0.1, n = 3, read-out: IC50 at treatment time 72 h postinoculation) it was above 188 nM; in the series with RSV A2 [4] (HEp-2, 72 h, MOI 1.0, n = 3, read-out: IC50 at treatment time 72 h postinoculation), above 188 nM; with RSV A2 [4] (HEp-2, MOI 0.02, n = 3, CPE at 144 h, read-out: IC50 at treatment time 0 h postinoculation), 0.38 nM; in the series with RSV A2 [4] (HEp-2, MOI 0.1, n = 3, CPE at 144 h, read-out: IC50 at treatment time 0 h postinoculation) it was 0.57 nM. The IC50 is 1.05 nM in the series on RSV A2 [4] (HEp-2, MOI 1.0, n = 3, CPE at 144 h, read-out: IC50 at treatment time 0 h postinoculation); 0.0018 nM in series [5] (setting [9]); 0.17 ± 0.043 nM with RSV B WST (setting [8]); below 0.188 nM in series [6]. Further, the IC90 with RSV A2 [1] (setting [8]) was 0.93 ± 0.098 nM; in [5] (setting [9]), 0.0048 nM; with RSV B WST (setting [8]) it was above 126 nM; in series [6], below 0.188 nM. The “activity on CPE of the PC786 escape mutant, in words” value in series [6] is recorded as “remained susceptible”.

As to `Cc1ccc(CCCO)c(NCc2ccc3nc(NCCCN4CCOCC4)n(Cc4nc(C)ccc4O)c3c2)c1` [TMC35315], in the series on RSV A2 [1] (setting [10]), the IC50 was determined as 0.78 ± 0.0093 nM and the IC90 worked out at 1.29 ± 0.015 nM. Also, in the series on RSV B WST (setting [10]), inhibition was half-maximal at 0.85 ± 0.017 nM (IC50) and it took 2.63 ± 0.19 nM to reach the 90% level (IC90).

`COc1ccc(CCNCCCN2C(=O)c3c(cc(N)c4[nH]c(-c5ccc(C)c([N+](=O)[O-])c5)nc34)C(C)(C)C2=O)cc1OC` [BI compound D]: the IC50 in the series with RSV A2 [1] (setting [10]) was 57.6 ± 1.53 nM; in series [5] (CPE, N=3, vehicle control virus) it was 11.9 nM; with RSV B WST (setting [10]), 47.8 ± 2.96 nM; in series [6], 87.4 nM; in series [2] it was 55.3 nM. In addition, the IC90 with RSV A2 [1] (setting [10]) is above 333 nM; in series [5] (CPE, N=3), 79.9 nM; in the series on RSV B WST (setting [10]) it was above 1660 nM; in series [6] it was 161 nM; in series [2], 233 nM. Moreover, the “activity on CPE of the PC786 escape mutant, in words” value in series [6] was “slightly reduced”.

In turn, `NC(=O)c1ncn([C@@H]2O[C@H](CO)[C@@H](O)[C@H]2O)n1` [Ribavirin] returned a CC50 in the series “in vitro” of 202000 nM. For the same compound, the IC50 with RSV A2 [1] (setting [8]) was above 16400 nM; with RSV A2 [7] (2 h exposure then 24-h washout before inoculation), 253000 nM; in the series with RSV A2 [7] (nonwashout (sustained presence of drug)), 6000 nM; in the series on RSV B WST (setting [8]), 10300 nM. The IC90 in the series on RSV A2 [1] (setting [8]) and with RSV B WST (setting [8]) was above 16400 nM throughout.
